Data on two compounds can be found in PMC8617627, “Novel DYRK1A Inhibitor Rescues Learning and Memory Deficits in a Mouse Model of Down Syndrome” (Pharmaceuticals, 2021).

SMILES strings stand for the structures. Where two headings read alike, the source gives them in different places.

Common to all, as to assay: Kinase profile (33P ATP filter binding)
Holding throughout (type): biochemical

Assay [1] has as its target T1, ASK1 (Homo sapiens, UniProt Q99683).
T1 sequence (Q99683 1-1374): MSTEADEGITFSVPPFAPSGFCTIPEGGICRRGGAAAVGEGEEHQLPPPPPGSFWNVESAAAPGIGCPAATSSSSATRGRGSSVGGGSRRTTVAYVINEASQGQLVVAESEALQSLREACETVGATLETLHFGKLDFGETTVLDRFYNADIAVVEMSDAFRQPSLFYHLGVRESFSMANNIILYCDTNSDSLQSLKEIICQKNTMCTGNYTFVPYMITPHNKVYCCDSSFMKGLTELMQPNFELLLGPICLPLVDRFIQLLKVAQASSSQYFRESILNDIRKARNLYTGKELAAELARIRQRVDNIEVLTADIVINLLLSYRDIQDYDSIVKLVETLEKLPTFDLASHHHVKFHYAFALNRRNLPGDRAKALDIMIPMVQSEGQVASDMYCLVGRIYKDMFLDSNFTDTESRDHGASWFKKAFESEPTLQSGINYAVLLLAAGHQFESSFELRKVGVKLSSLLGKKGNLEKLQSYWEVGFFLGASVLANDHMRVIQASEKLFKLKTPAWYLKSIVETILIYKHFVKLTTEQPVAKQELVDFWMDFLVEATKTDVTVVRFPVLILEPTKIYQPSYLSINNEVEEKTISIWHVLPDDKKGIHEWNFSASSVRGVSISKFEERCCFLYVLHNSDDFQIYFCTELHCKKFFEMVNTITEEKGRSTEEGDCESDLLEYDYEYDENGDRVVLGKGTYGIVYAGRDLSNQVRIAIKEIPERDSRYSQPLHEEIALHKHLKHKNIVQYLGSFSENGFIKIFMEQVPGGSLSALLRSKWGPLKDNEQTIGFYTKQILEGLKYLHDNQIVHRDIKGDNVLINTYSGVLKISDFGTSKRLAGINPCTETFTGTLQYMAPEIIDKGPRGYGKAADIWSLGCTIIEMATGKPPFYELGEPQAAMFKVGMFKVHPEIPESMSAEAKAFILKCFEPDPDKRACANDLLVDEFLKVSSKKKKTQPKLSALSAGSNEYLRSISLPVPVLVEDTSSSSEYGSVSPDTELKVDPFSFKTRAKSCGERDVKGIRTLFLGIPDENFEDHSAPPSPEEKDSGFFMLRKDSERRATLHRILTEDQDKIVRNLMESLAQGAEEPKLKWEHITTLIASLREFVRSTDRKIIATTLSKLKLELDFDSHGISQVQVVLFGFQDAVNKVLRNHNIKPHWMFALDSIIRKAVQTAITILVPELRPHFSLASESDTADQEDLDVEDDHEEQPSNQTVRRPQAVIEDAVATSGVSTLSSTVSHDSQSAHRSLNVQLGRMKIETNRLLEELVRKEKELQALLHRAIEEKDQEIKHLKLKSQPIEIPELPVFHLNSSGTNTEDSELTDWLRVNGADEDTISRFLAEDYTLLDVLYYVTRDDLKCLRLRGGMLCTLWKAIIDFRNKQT
To be noted: read-out: Remaining protein kinase activity.

Assay [2] has as its target EPH-A4 (Homo sapiens, UniProt P54764). To be noted: read-out: Remaining protein kinase activity.
The target of assay [3] is T2, MAP4K3 (Homo sapiens, UniProt Q8IVH8).
T2 sequence (Q8IVH8 1-894): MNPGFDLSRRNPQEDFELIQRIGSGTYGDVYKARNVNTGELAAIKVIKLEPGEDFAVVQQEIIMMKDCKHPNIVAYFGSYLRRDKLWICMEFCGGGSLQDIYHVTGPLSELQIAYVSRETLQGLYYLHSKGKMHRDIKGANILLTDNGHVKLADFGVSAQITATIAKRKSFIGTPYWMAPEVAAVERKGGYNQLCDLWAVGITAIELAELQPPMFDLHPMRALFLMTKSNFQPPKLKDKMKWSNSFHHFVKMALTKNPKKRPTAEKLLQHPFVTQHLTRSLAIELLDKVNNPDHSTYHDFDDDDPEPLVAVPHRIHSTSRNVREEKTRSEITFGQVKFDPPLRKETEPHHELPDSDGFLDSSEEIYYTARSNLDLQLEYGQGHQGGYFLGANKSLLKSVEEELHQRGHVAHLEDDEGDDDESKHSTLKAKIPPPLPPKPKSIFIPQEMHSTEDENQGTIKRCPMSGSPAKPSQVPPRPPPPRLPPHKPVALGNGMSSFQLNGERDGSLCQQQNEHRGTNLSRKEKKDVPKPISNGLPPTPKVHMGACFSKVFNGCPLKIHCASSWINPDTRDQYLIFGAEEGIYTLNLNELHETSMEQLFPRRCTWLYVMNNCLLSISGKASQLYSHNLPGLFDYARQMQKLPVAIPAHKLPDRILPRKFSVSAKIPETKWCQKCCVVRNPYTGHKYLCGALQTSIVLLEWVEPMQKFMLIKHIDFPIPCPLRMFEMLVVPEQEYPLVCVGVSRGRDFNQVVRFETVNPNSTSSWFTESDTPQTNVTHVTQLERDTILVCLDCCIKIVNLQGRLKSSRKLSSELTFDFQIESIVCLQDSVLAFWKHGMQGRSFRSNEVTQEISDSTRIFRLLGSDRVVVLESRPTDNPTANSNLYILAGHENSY

For assay [4], the target named is MKK2 (Homo sapiens, UniProt P36507). To be noted: read-out: Remaining protein kinase activity.
Assay [5] deals with MLK1 (Homo sapiens, UniProt P80192). To be noted: read-out: Remaining protein kinase activity.
In assay [6] the target is MNK2 (Homo sapiens, UniProt Q9HBH9). To be noted: read-out: Remaining protein kinase activity.
In assay [7] the target is YES1 (Homo sapiens, UniProt P07947). To be noted: read-out: Remaining protein kinase activity.
YES1, sequence (P07947 whole entry): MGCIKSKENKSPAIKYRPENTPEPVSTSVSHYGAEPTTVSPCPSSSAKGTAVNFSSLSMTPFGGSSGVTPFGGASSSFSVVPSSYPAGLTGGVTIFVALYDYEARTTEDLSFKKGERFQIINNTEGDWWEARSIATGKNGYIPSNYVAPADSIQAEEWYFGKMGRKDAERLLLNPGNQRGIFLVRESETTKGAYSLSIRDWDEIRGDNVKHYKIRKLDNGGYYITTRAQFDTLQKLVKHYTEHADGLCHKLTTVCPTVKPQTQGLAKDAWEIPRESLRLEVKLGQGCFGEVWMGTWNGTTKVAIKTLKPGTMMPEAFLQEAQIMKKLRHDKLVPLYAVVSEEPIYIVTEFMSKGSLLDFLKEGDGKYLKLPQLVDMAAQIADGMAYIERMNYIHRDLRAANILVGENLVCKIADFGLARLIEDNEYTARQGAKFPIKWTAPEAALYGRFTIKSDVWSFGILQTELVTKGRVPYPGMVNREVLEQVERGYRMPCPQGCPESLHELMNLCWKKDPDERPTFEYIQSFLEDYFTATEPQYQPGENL

MNK2, sequence (Q9HBH9 whole entry): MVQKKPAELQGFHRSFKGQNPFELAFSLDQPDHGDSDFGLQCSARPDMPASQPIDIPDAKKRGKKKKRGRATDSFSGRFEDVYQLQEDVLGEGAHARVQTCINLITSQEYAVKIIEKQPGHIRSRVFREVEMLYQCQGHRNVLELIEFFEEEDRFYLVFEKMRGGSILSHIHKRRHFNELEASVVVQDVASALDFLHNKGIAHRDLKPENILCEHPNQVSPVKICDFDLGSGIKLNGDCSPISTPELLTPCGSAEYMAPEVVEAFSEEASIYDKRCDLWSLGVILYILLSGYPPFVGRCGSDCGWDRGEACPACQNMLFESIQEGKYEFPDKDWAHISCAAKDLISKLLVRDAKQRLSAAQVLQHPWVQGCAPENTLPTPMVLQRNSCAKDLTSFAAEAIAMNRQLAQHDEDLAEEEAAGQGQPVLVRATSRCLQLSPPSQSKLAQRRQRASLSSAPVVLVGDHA
EPH-A4, sequence (P54764 20-986): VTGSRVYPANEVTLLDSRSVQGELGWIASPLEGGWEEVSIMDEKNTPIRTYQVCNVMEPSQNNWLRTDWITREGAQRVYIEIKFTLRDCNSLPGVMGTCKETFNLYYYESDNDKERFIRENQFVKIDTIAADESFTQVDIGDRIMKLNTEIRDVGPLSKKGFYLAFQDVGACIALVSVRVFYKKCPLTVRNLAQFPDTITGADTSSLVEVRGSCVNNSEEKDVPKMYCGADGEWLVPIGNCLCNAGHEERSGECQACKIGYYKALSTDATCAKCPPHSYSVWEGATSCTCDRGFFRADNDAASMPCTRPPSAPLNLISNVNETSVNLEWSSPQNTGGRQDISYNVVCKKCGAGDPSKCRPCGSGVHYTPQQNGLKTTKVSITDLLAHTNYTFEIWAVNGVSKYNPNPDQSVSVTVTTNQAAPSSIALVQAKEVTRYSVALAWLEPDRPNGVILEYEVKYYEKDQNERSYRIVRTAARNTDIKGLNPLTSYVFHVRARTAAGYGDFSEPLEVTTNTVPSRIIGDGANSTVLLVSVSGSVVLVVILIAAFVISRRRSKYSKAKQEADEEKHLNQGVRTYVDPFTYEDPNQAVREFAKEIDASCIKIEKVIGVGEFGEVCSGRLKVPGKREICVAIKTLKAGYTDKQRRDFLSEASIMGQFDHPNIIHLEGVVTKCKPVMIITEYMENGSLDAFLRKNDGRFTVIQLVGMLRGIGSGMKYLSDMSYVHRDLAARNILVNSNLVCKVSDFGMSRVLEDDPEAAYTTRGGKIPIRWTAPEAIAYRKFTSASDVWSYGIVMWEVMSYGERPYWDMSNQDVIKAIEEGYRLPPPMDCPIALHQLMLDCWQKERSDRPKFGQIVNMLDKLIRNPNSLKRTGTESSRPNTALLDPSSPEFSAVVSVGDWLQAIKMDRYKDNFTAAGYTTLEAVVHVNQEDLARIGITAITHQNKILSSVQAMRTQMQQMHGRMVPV
MLK1, sequence (P80192 whole entry): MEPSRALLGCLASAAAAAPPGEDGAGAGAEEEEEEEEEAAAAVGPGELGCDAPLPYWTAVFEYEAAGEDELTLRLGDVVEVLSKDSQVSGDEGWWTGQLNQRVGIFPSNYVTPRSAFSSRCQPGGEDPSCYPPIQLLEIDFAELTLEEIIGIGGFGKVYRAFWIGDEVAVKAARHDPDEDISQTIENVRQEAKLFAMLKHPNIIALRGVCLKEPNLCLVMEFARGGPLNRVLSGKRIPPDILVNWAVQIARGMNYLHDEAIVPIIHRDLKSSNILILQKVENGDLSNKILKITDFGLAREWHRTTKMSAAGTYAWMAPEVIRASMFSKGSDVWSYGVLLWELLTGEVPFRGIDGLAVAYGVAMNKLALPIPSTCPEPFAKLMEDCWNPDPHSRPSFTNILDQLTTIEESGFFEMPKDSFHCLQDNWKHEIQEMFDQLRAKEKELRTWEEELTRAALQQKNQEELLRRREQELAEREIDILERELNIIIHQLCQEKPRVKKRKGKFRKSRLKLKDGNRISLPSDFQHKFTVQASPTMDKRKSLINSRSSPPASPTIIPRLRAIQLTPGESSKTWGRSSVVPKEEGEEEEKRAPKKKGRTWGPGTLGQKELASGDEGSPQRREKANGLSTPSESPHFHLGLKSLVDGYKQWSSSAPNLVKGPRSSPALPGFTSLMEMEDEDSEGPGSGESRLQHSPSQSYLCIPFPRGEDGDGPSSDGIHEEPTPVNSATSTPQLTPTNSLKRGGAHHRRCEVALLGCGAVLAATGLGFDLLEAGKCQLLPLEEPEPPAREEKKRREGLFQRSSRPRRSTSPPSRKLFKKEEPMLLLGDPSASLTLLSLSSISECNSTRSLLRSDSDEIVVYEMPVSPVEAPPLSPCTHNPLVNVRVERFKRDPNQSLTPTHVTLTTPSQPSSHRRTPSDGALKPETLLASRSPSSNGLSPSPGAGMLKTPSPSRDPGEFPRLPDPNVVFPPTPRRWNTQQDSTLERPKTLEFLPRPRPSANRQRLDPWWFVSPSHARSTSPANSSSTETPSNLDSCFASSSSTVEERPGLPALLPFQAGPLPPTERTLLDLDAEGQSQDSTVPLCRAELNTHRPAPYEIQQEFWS
MKK2, sequence (P36507 whole entry, species assumed): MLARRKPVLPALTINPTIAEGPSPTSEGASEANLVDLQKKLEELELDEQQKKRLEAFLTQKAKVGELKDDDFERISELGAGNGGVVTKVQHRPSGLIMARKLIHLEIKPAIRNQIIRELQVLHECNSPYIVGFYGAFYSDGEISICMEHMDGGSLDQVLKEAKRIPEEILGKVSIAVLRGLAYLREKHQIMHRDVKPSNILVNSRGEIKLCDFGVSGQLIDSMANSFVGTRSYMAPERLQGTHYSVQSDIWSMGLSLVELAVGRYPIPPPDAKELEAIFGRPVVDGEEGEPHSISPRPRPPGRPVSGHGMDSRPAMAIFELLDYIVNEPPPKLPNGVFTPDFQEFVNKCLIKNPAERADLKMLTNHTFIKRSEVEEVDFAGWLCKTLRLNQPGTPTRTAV

Consider `COc1ccc2sc(-c3cncc(NC(C)=O)c3)nc2c1` [PST-001, N-(5-(5-Methoxybenzo[d]thiazol-2-yl)pyridin-3-yl)acetamide], for which the remaining activity – broadly, the signal under treatment as a percentage of the control signal – at 1 µM in assay [1] worked out at 114%; in assay [2], 117%; in assay [4] it was 75%; in assay [5], 108%; in assay [6], 106%; in assay [7] it was 130%. Moreover, the remaining activity at 100 µM in assay [1] is 131%; in assay [2], 106%; in assay [4], 100%; in assay [5], 96%; in assay [6] it was 66%; in assay [7] it was 128%. In addition, the “Remaining protein kinase activity” value in assay [3] (1 μM) came out at 111%; in assay [3] (100 μM) it was 94%.
For `COc1ccc2sc(-c3cncc(N)c3)nc2c1` [compound 1, 5-(5-Methoxybenzo[d]thiazol-2-yl)pyridin-3-amine], the remaining activity at 1 µM in assay [1] (ASK1, 1 μM) is 116%; in assay [2] (EPH-A4, 1 μM), 89%; in assay [4] (MKK2, 1 μM) it was 81%; in assay [5] (MLK1, 1 μM), 106%; in assay [6] (MNK2, 1 μM) it was 90%; in assay [7] (YES1, 1 μM) it was 122%. In addition, the remaining activity at 100 µM in assay [1] (ASK1, 100 μM) came to 150%; in assay [2] (EPH-A4, 100 μM), 85%; in assay [4] (MKK2, 100 μM) it was 62%; in assay [5] (MLK1, 100 μM), 16%; in assay [6] (MNK2, 100 μM), 27%; in assay [7] (YES1, 100 μM), 58%. For the same compound, the “Remaining protein kinase activity” value in assay [3] (1 μM) was 98%; in assay [3] (100 μM) it was 22%.
